Test results: the CheMixHub ionic liquid set

Test: xn = mol fraction of the nth substance listed

CN1CCN(C)C1=O + CCCCCC[n+]1ccn(C)c1.[Cl-]
100 kPa
Conditions	viscosity [mPa·s]
288.15 K, x2 = 0	2.368
288.15 K, x2 = 0.1007	6.33
303.15 K, x2 = 0.1999	9.99
308.15 K, x2 = 0	1.616
308.15 K, x2 = 0.1999	8.56
308.15 K, x2 = 0.3856	44.3
318.15 K, x2 = 0.6969	182
323.15 K, x2 = 0.1007	2.8
323.15 K, x2 = 0.2985	12.78
323.15 K, x2 = 0.4985	45.7
328.15 K, x2 = 0	1.195
333.15 K, x2 = 0.2985	9.67

CCn1cc[nH+]c1.O=S(=O)([N-]S(=O)(=O)C(F)(F)F)C(F)(F)F + c1c[nH]cn1
Conditions	electrical conductivity [S/m]
303.15 K, 100 kPa, x1 = 0.948	0.427

O=S(=O)([N-]S(=O)(=O)C(F)(F)F)C(F)(F)F.[Li+] + CC[n+]1ccn(C)c1.O=S(=O)([N-]S(=O)(=O)C(F)(F)F)C(F)(F)F
101 kPa
Conditions	electrical conductivity, x2 = 0.6878 [S/m]	electrical conductivity, x2 = 0.746 [S/m]	electrical conductivity, x2 = 0.7874 [S/m]	electrical conductivity, x2 = 0.8765 [S/m]	electrical conductivity, x2 = 0.9376 [S/m]	viscosity, x2 = 0.8 [mPa·s]
288.15 K	0.094	0.146	0.189	0.351	0.461	–
298.15 K	0.175	0.253	0.315	0.539	0.686	89.9
333.15 K	0.739	0.91	1.06	1.53	1.79	–
358.15 K	–	–	–	–	–	13.33

CCCCCCCCCCCCCC[P+](CCCCCC)(CCCCCC)CCCCCC.O=[N+]([O-])c1c[n-]cn1 + COCCOCCOCCOCCOC
viscosity [mPa·s], 100 kPa
Conditions	278.15 K	283.15 K	303.15 K
x2 = 0.189	1503	1036	–
x2 = 0.404	–	–	107

CCCC[n+]1ccn(C)c1.CS(=O)(=O)[O-] + CCCC[n+]1ccn(C)c1.[Cl-]
Conditions	viscosity [mPa·s]
353.15 K, 102 kPa, x1 = 0.2	98

CCCCCCCCCC[n+]1ccn(C)c1.[Cl-] + OC[C@H]1O[C@@](CO)(O[C@H]2O[C@H](CO)[C@@H](O)[C@H](O)[C@H]2O)[C@@H](O)[C@@H]1O + O
298.15 K, 101.3 kPa
Conditions	electrical conductivity [S/m]
x2 = 0, x1 = 6.46e-06	0.00385
x2 = 0, x1 = 9.55e-06	0.00548
x2 = 0, x1 = 1.262e-05	0.00708
x2 = 0, x1 = 1.582e-05	0.00872
x2 = 0, x1 = 1.894e-05	0.0103
x2 = 0, x1 = 2.2e-05	0.0118
x2 = 0, x1 = 2.507e-05	0.01334
x2 = 0, x1 = 2.8e-05	0.0148
x2 = 0, x1 = 3.092e-05	0.0162
x2 = 0, x1 = 3.384e-05	0.0176
x2 = 0.003591, x1 = 7.14e-06	0.00361
x2 = 0.003591, x1 = 1.162e-05	0.00554
x2 = 0.003591, x1 = 1.987e-05	0.00901
x2 = 0.003591, x1 = 2.367e-05	0.0106
x2 = 0.003591, x1 = 2.764e-05	0.01214
x2 = 0.003591, x1 = 3.131e-05	0.0136
x2 = 0.003591, x1 = 3.559e-05	0.01531
x2 = 0.003591, x1 = 3.942e-05	0.0168
x2 = 0.003591, x1 = 4.357e-05	0.0184
x2 = 0.007156, x1 = 4.94e-06	0.00234
x2 = 0.007156, x1 = 9.37e-06	0.0041
x2 = 0.007156, x1 = 1.394e-05	0.00589
x2 = 0.007156, x1 = 1.816e-05	0.00752
x2 = 0.007156, x1 = 2.215e-05	0.00905
x2 = 0.007156, x1 = 2.62e-05	0.0106
x2 = 0.007156, x1 = 3.004e-05	0.01205
x2 = 0.007156, x1 = 3.378e-05	0.0135
x2 = 0.007156, x1 = 3.734e-05	0.0148
x2 = 0.007156, x1 = 4.078e-05	0.01606
x2 = 0.0107, x1 = 8.82e-06	0.00336
x2 = 0.0107, x1 = 1.279e-05	0.00469
x2 = 0.0107, x1 = 1.666e-05	0.00596
x2 = 0.0107, x1 = 2.02e-05	0.00712
x2 = 0.0107, x1 = 2.387e-05	0.00828
x2 = 0.0107, x1 = 2.723e-05	0.00939
x2 = 0.0107, x1 = 3.056e-05	0.0105
x2 = 0.0107, x1 = 3.344e-05	0.01139
x2 = 0.0107, x1 = 3.674e-05	0.0124
x2 = 0.0107, x1 = 3.975e-05	0.0134
x2 = 0.01421, x1 = 8.46e-06	0.00279
x2 = 0.01421, x1 = 1.229e-05	0.00388
x2 = 0.01421, x1 = 1.596e-05	0.00491
x2 = 0.01421, x1 = 1.986e-05	0.00599
x2 = 0.01421, x1 = 2.304e-05	0.00688
x2 = 0.01421, x1 = 2.641e-05	0.0078
x2 = 0.01421, x1 = 2.985e-05	0.00874
x2 = 0.01421, x1 = 3.276e-05	0.00953
x2 = 0.01421, x1 = 3.602e-05	0.01042
x2 = 0.01421, x1 = 3.892e-05	0.01121
x2 = 0.0177, x1 = 1.052e-05	0.00291
x2 = 0.0177, x1 = 1.539e-05	0.00407
x2 = 0.0177, x1 = 2e-05	0.00515
x2 = 0.0177, x1 = 2.419e-05	0.00614
x2 = 0.0177, x1 = 2.851e-05	0.00714
x2 = 0.0177, x1 = 3.269e-05	0.0081
x2 = 0.0177, x1 = 3.635e-05	0.00895
x2 = 0.0177, x1 = 4.032e-05	0.00985
x2 = 0.0177, x1 = 4.414e-05	0.0107

OCCO + CC[n+]1ccn(C)c1.O=S(=O)([O-])C(F)(F)F
100 kPa, x1 = 1
Conditions	viscosity [mPa·s]
308.15 K	11.16
318.15 K	7.91
